From publication PMC10321319 (Nature, 2022) come the findings set out here.

The subject of one assay is A. baumannii ATCC17978. Kind of assay: CHIR-090 inhibition assay, growth curves. It is filed as cell-based, Acinetobacter baumannii. Conditions: 48 h growth curve.
Assay [1] concerns A. baumannii SM1536 (pMQ124xlab1-mcr-1). Kind of assay: MIC, microbial susceptibility assay. The assay is classed as cell-based, Acinetobacter baumannii. Particulars: A. baumannii SM1536 upon introduction of mcr-1.
Assay [2] deals with A. baumannii 0301 (mcr-1). Kind of assay: MIC, microbial susceptibility assay. It is filed as cell-based, Acinetobacter baumannii. Particulars: A. baumannii 0301 upon introduction of mcr-1.
Assay [3] concerns K. pneumoniae ATCC13883 (pMQ124-mcr-1). Conditions: K. pneumoniae 13883 upon introduction of mcr-1.
The subject of assay [4] is E. cloacae ATCC13047 (ΔphoP/Q+phoP/Q). Conditions: E. cloacae ATCC13047 upon introduction of phoP/Q.

Structures are written as SMILES. Positions of bridges follow the written chain, without caps; N, C: chain ends. Non-standard residues stand in square brackets, D forms with d. Residues, ends and D or L forms follow the SMILES beside them. *: point of attachment. Octanoyl(3-OH) = CCCCCC(O)CC(=O)*; Decanoyl = CCCCCCCCCC(=O)*; Nonanoyl = CCCCCCCCC(=O)*; X1 = CC[C@H](C)CCCCC(=O)*; dDab = NCC[C@@H](N)C(=O)O; Heptanoyl = CCCCCCC(=O)*; Octanoyl = CCCCCCCC(=O)*; Dab = NCC[C@H](N)C(=O)O

`C[C@@H](O)[C@H](NC(=O)c1ccc(C#Cc2ccc(CN3CCOCC3)cc2)cc1)C(=O)NO` [CHIR-090]: in the assay with A. baumannii ATCC17978, the “A. baumannii growth with CHIR-090 alone” value is given as “does not inhibit A. baumannii growth”. Turning to `CCCCCCC(=O)N[C@@H](CCN)C(=O)N[C@H](C(=O)N[C@H](CO)C(=O)N[C@H]1CCNC(=O)[C@H](CC(C)C)NC(=O)[C@H](CCN)NC(=O)[C@H](CCN)NC(=O)[C@H]([C@@H](C)CC)NC(=O)[C@@H](CC(C)C)NC(=O)[C@H](CCN)NC1=O)[C@@H](C)O` [L1] (Heptanoyl-[Dab]T[dS][Dab][Dab][dL]I[Dab][Dab]L; lactam 4-C; N-terminus assumed), the “Fold increase in MIC” value came to 8 in assay [1] and 2 in assay [2].

`CCCCCCCC(=O)N[C@@H](CCN)C(=O)N[C@H](C(=O)N[C@H](CO)C(=O)N[C@H]1CCNC(=O)[C@H](CC(C)C)NC(=O)[C@H](CCN)NC(=O)[C@H](CCN)NC(=O)[C@H]([C@@H](C)CC)NC(=O)[C@@H](CC(C)C)NC(=O)[C@H](CCN)NC1=O)[C@@H](C)O` [L2] (Octanoyl-[Dab]T[dS][Dab][Dab][dL]I[Dab][Dab]L; lactam 4-C; N-terminus assumed): the “Fold increase in MIC” value in assay [1] worked out at 8; in assay [2] it was 2. In the case of `CCCCCCCCC(=O)N[C@@H](CCN)C(=O)N[C@H](C(=O)N[C@H](CO)C(=O)N[C@H]1CCNC(=O)[C@H](CC(C)C)NC(=O)[C@H](CCN)NC(=O)[C@H](CCN)NC(=O)[C@H]([C@@H](C)CC)NC(=O)[C@@H](CC(C)C)NC(=O)[C@H](CCN)NC1=O)[C@@H](C)O` [L3] (Nonanoyl-[Dab]T[dS][Dab][Dab][dL]I[Dab][Dab]L; lactam 4-C; N-terminus assumed), the “Fold increase in MIC” value in assay [1] is recorded as 4; in assay [2], 2. `CCCCCCCCCC(=O)N[C@@H](CCN)C(=O)N[C@H](C(=O)N[C@H](CO)C(=O)N[C@H]1CCNC(=O)[C@H](CC(C)C)NC(=O)[C@H](CCN)NC(=O)[C@H](CCN)NC(=O)[C@H]([C@@H](C)CC)NC(=O)[C@@H](CC(C)C)NC(=O)[C@H](CCN)NC1=O)[C@@H](C)O` [L4] (Decanoyl-[Dab]T[dS][Dab][Dab][dL]I[Dab][Dab]L; lactam 4-C; N-terminus assumed): the “Fold increase in MIC” value in assay [1] was found to be 8; in assay [2], 1. On the same counts, the results for `CCCCCC(O)CC(=O)N[C@@H](CCN)C(=O)N[C@H](C(=O)N[C@H](CO)C(=O)N[C@H]1CCNC(=O)[C@H](CC(C)C)NC(=O)[C@H](CCN)NC(=O)[C@H](CCN)NC(=O)[C@H]([C@@H](C)CC)NC(=O)[C@@H](CC(C)C)NC(=O)[C@H](CCN)NC1=O)[C@@H](C)O` (stereo partly drawn) [L5] ({Octanoyl(3-OH)}-[Dab]T[dS][Dab][Dab][dL]I[Dab][Dab]L; lactam 4-C; N-terminus assumed) are 4 and 2. With `CC[C@H](C)CCCCC(=O)N[C@@H](CCN)C(=O)N[C@H](C(=O)N[C@H](CCN)C(=O)N[C@H]1CCNC(=O)[C@H](CC(C)C)NC(=O)[C@H](CCN)NC(=O)[C@H](CCN)NC(=O)[C@H]([C@@H](C)CC)NC(=O)[C@@H](CC(C)C)NC(=O)[C@H](CCN)NC1=O)[C@@H](C)O` [Macolacin-3Dab] (X1-[Dab]T[dDab][Dab][Dab][dL]I[Dab][Dab]L; lactam 4-C), the “Fold increase in MIC” value was 8 in assay [3] and 4 in assay [4].
